The supplement of paper PMC10307832

How the values were obtained:
Experiment in all cases: relative viability (nuclei count vs DMSO), 5 days (fraction); higher = more cells survive
Sulindac + Trametinib = compound: CC1=C(CC(=O)O)c2cc(F)ccc2/C1=C\c1ccc([S+](C)[O-])cc1 [Sulindac] + CC(=O)Nc1cccc(-n2c(=O)n(C3CC3)c(=O)c3c(Nc4ccc(I)cc4F)n(C)c(=O)c(C)c32)c1 [Trametinib] (partner 0.02 µM)
How it was run: (§1)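 Lung cancer cell lines in 1536-well plates got either a single drug or a fixed anchor-drug dose together with five library-drug doses (not always all listed) in √10 steps, by pin tool, on the day after seeding. Nuclei were counted after 5 days, and relative viability is the treated-to-vehicle ratio of nuclei counts. Values are medians of duplicate plates.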

5-Fluorouracil + AZD7762 = compound: O=c1[nH]cc(F)c(=O)[nH]1 [5-Fluorouracil] + NC(=O)Nc1cc(-c2cccc(F)c2)sc1C(=O)N[C@H]1CCCNC1 [AZD7762] (partner 0.2 µM)
How it was run: as §1

[1] = compound: CN[C@@H]1C[C@H]2O[C@@](C)([C@@H]1OC)n1c3ccccc3c3c4c(c5c6ccccc6n2c5c31)C(=O)NC4 [Staurosporine] + CC(=O)Nc1cccc(-n2c(=O)n(C3CC3)c(=O)c3c(Nc4ccc(I)cc4F)n(C)c(=O)c(C)c32)c1 [Trametinib] (partner 0.02 µM)
How it was run: as §1

[2] = compound: O=c1[nH]cc(F)c(=O)[nH]1 [5-Fluorouracil] + O=C(c1cc(Cc2n[nH]c(=O)c3ccccc23)ccc1F)N1CCN(C(=O)C2CC2)CC1 [Olaparib] (partner 8 µM)
How it was run: as §1

Cell Line	relative viability (Sulindac + Trametinib; first compound 0.08 µM)	relative viability (Sulindac + Trametinib; first compound 0.253 µM)	relative viability (Sulindac + Trametinib; first compound 2.53 µM)	relative viability (Sulindac + Trametinib; first compound 8 µM)	relative viability (5-Fluorouracil + AZD7762; first compound 0.02 µM)	relative viability (5-Fluorouracil + AZD7762; first compound 0.2 µM)	relative viability (5-Fluorouracil + AZD7762; first compound 0.6325 µM)	relative viability (5-Fluorouracil + AZD7762; first compound 2 µM)	relative viability ([1]; first compound 0.005 µM)	relative viability ([1]; first compound 0.01581 µM)	relative viability ([1]; first compound 0.05 µM)	relative viability ([1]; first compound 0.1581 µM)	relative viability ([1]; first compound 0.5 µM)	relative viability ([2]; first compound 0.02 µM)	relative viability ([2]; first compound 0.2 µM)	relative viability ([2]; first compound 0.6325 µM)	relative viability ([2]; first compound 2 µM)	relative viability (Sulindac + Trametinib; first compound 0.8 µM)
NCI-H1792	0.425	0.393	0.512	0.513	0.641	0.303	0.213	0.218	0.374	0.263	0.164	0.0813	0.0466	0.467	0.54	0.169	0.175	–
NCI-H1793	0.352	0.497	0.497	0.481	0.344	0.488	0.409	0.332	0.472	–	0.359	0.168	0.169	0.787	0.9	0.613	0.483	–
NCI-H1915	0.303	0.307	0.302	0.303	0.409	0.683	0.643	0.577	0.252	0.139	0.0978	0.0599	0.0612	0.197	0.269	0.22	0.211	0.246
NCI-H1944	0.476	0.418	0.421	0.487	0.475	0.199	0.106	0.0961	0.373	0.331	0.356	0.252	0.195	0.389	0.379	0.298	0.187	0.328
NCI-H1975	0.382	0.38	0.356	0.367	–	0.596	0.32	0.28	0.18	0.141	0.139	0.121	0.1	0.805	0.736	0.356	0.21	0.36
NCI-H1993	0.472	0.569	0.444	0.585	0.737	0.622	0.542	0.505	0.45	0.453	0.51	0.36	0.278	1.15	0.743	0.525	0.445	0.453
NCI-H2085	0.513	0.569	0.435	0.384	0.938	0.935	0.837	0.644	0.313	0.208	0.293	0.215	0.197	0.743	0.784	0.693	0.677	0.576
NCI-H2087	0.217	0.205	0.207	0.224	1.42	1.01	0.606	0.408	0.167	0.142	0.0865	0.0713	0.0829	0.577	0.607	0.45	0.319	0.158
NCI-H2126	0.674	0.568	0.51	0.619	0.995	0.249	0.209	0.256	0.592	0.373	0.375	0.339	0.345	0.808	0.374	0.329	0.254	0.553
NCI-H2170	1.24	0.938	0.936	0.946	0.793	0.718	0.317	0.236	–	–	0.904	0.63	0.379	0.597	0.545	0.339	0.289	0.83
NCI-H2342	0.829	0.81	0.826	0.825	0.473	0.622	0.557	0.546	0.948	0.675	0.499	0.417	0.363	0.419	0.529	0.442	0.39	0.721
NCI-H2347	0.279	0.272	0.258	0.271	0.63	0.45	0.339	0.343	0.259	0.248	0.174	0.221	0.186	0.62	0.489	0.456	0.445	0.297
NCI-H2405	0.687	0.668	0.634	0.731	0.813	0.86	0.684	0.494	0.355	0.161	0.148	0.0927	0.0684	0.808	0.962	0.891	0.618	0.581
NCI-H3122	0.222	0.243	0.214	0.267	0.959	0.856	0.197	0.143	0.368	–	0.648	–	0.221	0.51	0.542	0.299	0.216	0.203
PC-3 [JPC-3]	0.668	0.659	0.695	0.725	0.815	0.855	0.908	0.816	0.704	0.543	0.453	0.391	0.332	1.17	1.14	1.09	0.912	0.701
PC-14	0.908	0.772	0.779	1.01	0.361	0.431	0.389	0.278	0.483	0.064	0.0553	0.0467	0.0475	0.277	0.265	0.304	0.179	0.745
RERF-LC-KJ	0.99	0.928	0.877	0.933	0.973	–	0.948	0.893	0.795	0.604	–	0.328	0.207	0.985	0.829	0.878	0.763	0.778
SW 900	0.847	0.982	–	0.945	0.739	0.695	0.543	0.398	0.494	0.366	0.444	0.128	0.164	0.751	0.794	0.811	0.522	–
